In ChEMBL document CHEMBL2040759, “Design, synthesis and anticancer activity of nitric oxide donating/chalcone hybrids” (2012):

System: UACC-62
Experiment: Growth inhibition of human UACC62 cells assessed as cell growth at 10^-5 M after 48 hrs by SRB assay
Format: functional
Conditions: UACC-62, 48 h, read-out: Activity

## C/C(=N\O)c1ccc(OCC(=O)Nc2ccc(C(=O)/C=C/c3ccc(Cl)cc3)cc2)cc1
  growth at 10 µM: 37.5%
